US20090253671A1, “TRICYCLIC DERIVATIVES OF AZETIDINE AND PYRROLE WITH ANTIBACTERIAL ACTIVITY” (ASTRAZENECA AB, priority 2005, published 2009)
≈ marks a conversion by molar mass, not a printed value.

Assays:
Assay in all cases: Bacterial susceptibility testing in liquid media (MIC)
Format in all cases: cell-based
HIN446 = details: strain HIN446; lowest concentration reducing growth by 80% or more, 37 degrees C., 24 hrs
Protocol: (§1) Compounds were tested for antimicrobial activity by susceptibility testing in liquid media. Compounds were dissolved in dimethylsulfoxide and tested in 10 doubling dilutions in the susceptibility assays. The organisms used in the assay were grown overnight on suitable agar media and then suspended in a liquid medium appropriate for the growth of the organism. The suspension was a 0.5 McFarland and a further 1 in 10 dilution was made into the same liquid medium to prepare the final organism suspension in 100 μL. Plates were incubated under appropriate conditions at 37 degrees C. for 24 hrs prior to reading. The Minimum Inhibitory Concentration was determined as the lowest drug concentration able to reduce growth by 80% or more.

SAU516 = details: strain SAU516; lowest concentration reducing growth by 80% or more, 37 degrees C., 24 hrs
Protocol: as §1

Streptococcus pneumoniae = details: lowest concentration reducing growth by 80% or more, 37 degrees C., 24 hrs; for MIC SPN548: strain SPN548
Protocol: as §1

Cc1[nH]c(C(=O)NC2CN(c3ncc(C(=O)O)s3)C2)c(Cl)c1Cl [Example 4, 2-(3-{[(3,4-Dichloro-5-methyl-1H-pyrrol-2-yl)carbonyl]amino}azetidin-1-yl)-1,3-thiazole-5-carboxylic acid] showed an MIC HIN446 (HIN446) of 2 µg/mL (≈ 5.33 µM), an MIC SAU516 (SAU516) of 32 µg/mL (≈ 85.3 µM) and an MIC SPN548 (Streptococcus pneumoniae) of 4 µg/mL (≈ 10.7 µM).
Work on CONC(=O)c1cnc(N2CC(NC(=O)c3[nH]c(C)c(Cl)c3Cl)C2)s1 [Example 8, 2-(3-{[(3,4-Dichloro-5-methyl-1H-pyrrol-2-yl)carbonyl]amino}azetidin-1-yl)-N-methoxy-1,3-thiazole-5-carboxamide] yielded an MIC HIN446 (HIN446) of 8 µg/mL (≈ 19.8 µM), an MIC SAU516 (SAU516) of 8 µg/mL (≈ 19.8 µM) and an MIC SPN548 (Streptococcus pneumoniae) of 1 µg/mL (≈ 2.47 µM).
Compound CONC(=O)c1cc(N2CC(NC(=O)c3[nH]c(C)c(Cl)c3Cl)C2)nc(Cl)n1 [Example 9, 2-Chloro-6-(3-{[(3,4-dichloro-5-methyl-1H-pyrrol-2-yl)carbonyl]amino}azetidin-1-yl)-N-methoxypyrimidine-4-carboxamide] has an MIC HIN446 (HIN446) of 4 µg/mL (≈ 9.22 µM), an MIC SAU516 (SAU516) of 2 µg/mL (≈ 4.61 µM) and an MIC (Streptococcus pneumoniae; against Streptococcus pneumoniae) of 2 µg/mL (≈ 4.61 µM). The MIC SPN548 (Streptococcus pneumoniae) was 2 µg/mL (≈ 4.61 µM).
Cc1nc(N2CC(NC(=O)c3[nH]c(C)c(Cl)c3Cl)C2)sc1C(=O)O [Example 5, 2-(3-{[(3,4-Dichloro-5-methyl-1H-pyrrol-2-yl)carbonyl]amino}azetidin-1-yl)-4-methyl-1,3-thiazole-5-carboxylic acid] gave an MIC HIN446 (HIN446) of 0.5 µg/mL (≈ 1.28 µM), an MIC SAU516 (SAU516) of 4 µg/mL (≈ 10.3 µM) and an MIC SPN548 (Streptococcus pneumoniae) of 0.5 µg/mL (≈ 1.28 µM).
